In PubChem BioAssay (NCI):
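Where inhibition never reached the appropriate level, the endpoint shown equals the highest concentration tested. Otherwise, values were interpolated linearly from a five-concentration, 48-hour dose response in 96-well plates. Here, GI50 denotes the concentration required for 50% inhibition of growth. The concentration for full growth arrest is given as TGI.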

Tests used:
Test in all cases: NCI anticancer screen, dose series, 48 h
[1] = system: OVCAR-4 ovarian
[2] = system: IGROV1 ovarian
[3] = system: MDA-MB-435
[4] = system: OVCAR-8 ovarian
[5] = system: MCF7 breast
[6] = system: NCI-H23 lung
[7] = system: PC-3 prostate
[8] = system: A498 renal

| Compound | TGI [1] [µM] | TGI [2] [µM] | TGI [3] [µM] | TGI [4] [µM] | TGI [5] [µM] | TGI [6] [µM] | TGI [7] [µM] | TGI [8] [µM] | GI50 [2] [µM] | GI50 [3] [µM] | GI50 [4] [µM] | GI50 [5] [µM] | GI50 [7] [µM] | GI50 [8] [µM] | GI50 [1] [µM] | GI50 [6] [µM] |
| --- | --- | --- | --- | --- | --- | --- | --- | --- | --- | --- | --- | --- | --- | --- | --- | --- |
| COC(=O)/C(=N\NC(=S)NN)C(C(=O)OC)C(=O)C(=O)Nc1cccc(C(F)(F)F)c1 (centres undefined) | > 100 | > 100 | > 100 | > 100 | > 100 | > 100 | > 100 | > 100 | – | – | – | – | – | – | – | – |
| Oc1ccc(-c2cn3cc(Cl)sc3n2)cc1 | – | > 100 | > 100 | > 100 | 26.9 | – | 46.8 | > 100 | 67.7 | 32.3 | 56.3 | 6.77 | 15.9 | 57.5 | – | – |
| COc1ccc(OC)c(/C=C2\COc3ccc(O)c(O)c3C2=O)c1 | 14.5 | 6.68 | 5.48 | 27 | 14.4 | 7.3 | 6.82 | 23.6 | 2.31 | 1.97 | 3.05 | 1.2 | 1.82 | 11.2 | 2.58 | 2.44 |
| NC1=CC(=O)c2nc3ccccc3c3ccnc1c23 | > 59 | 6.33 | 19 | 18.5 | > 100 | 22.8 | > 48 | 40.8 | 1.57 | 1.22 | 2.39 | 1.29 | 6.53 | 6.19 | 7.7 | 0.273 |
| COc1cc(C2CC(c3ccccc3)=NN2C(C)=O)cc(OC)c1OC (centres undefined) | > 100 | > 100 | 8.27 | > 100 | > 100 | > 100 | > 100 | > 100 | 4.66 | 0.428 | 7.43 | 2.26 | 3.97 | 4.79 | 11.7 | 5.91 |
| O=C(O)c1ccccc1-c1ccccc1C(=O)Nc1ccc2c(c1)[nH]c(=O)c1ccccc12 | > 100 | > 100 | > 100 | > 100 | > 100 | > 100 | > 100 | > 100 | – | – | – | – | – | – | – | – |
| N#C/C(=C1C=C/C(=N\O)C(Cl)=C\1)c1ccccc1 | 51.5 | 23.7 | 2.66 | 9.23 | 11.5 | 65.6 | 11.7 | 64.7 | 4.26 | 0.542 | 2.71 | 0.321 | 0.688 | 3.34 | 12.7 | 5.61 |
| O=C(CN1C(=O)S/C(=C\C(Cl)=C\c2ccccc2)C1=O)NCCc1ccc(O)cc1 | 11.9 | 3.9 | 5.28 | > 100 | 11.5 | 6.15 | 5.12 | 7.75 | 1.76 | 2.09 | 2.97 | 1.79 | 1.96 | 1.65 | 2.61 | 2.29 |
| CC1OC(n2c3ccccc3c3c4c(c5c6ccccc6[nH]c5c32)C(=O)N(CCN2CCOCC2)C4=O)CC(O)C1O (centres undefined) | 14.1 | 16 | 9.59 | 16.5 | 18 | 11.1 | 11.4 | 13.4 | 3.67 | 2.71 | 2.74 | 1.05 | 3.55 | 5.13 | 4.03 | 2 |
| CCCCCCCCCCCCCCCCCC(=O)OCC(COC1OC(CS(=O)(=O)O)C(O)C(O)C1O)OC(=O)CCCCCCCCCCCCCCCCC (centres undefined) | > 100 | > 100 | > 100 | > 100 | > 100 | > 100 | > 100 | > 100 | – | – | – | – | – | – | – | – |
| Cn1ccnc1C(=O)/C=C/c1ccc(CC(=O)Nc2ccc(F)cc2)cc1 | > 25 | 16.6 | 14.9 | > 25 | 8.59 | 8.56 | 7.96 | 15.3 | 2.93 | 4.25 | 5.71 | 1.04 | 1.99 | 5.65 | 5.68 | 3.04 |
| N#Cc1cc(N(CCCl)CCCl)c([N+](=O)[O-])cc1[N+](=O)[O-] | > 100 | > 100 | > 100 | > 100 | > 100 | > 100 | > 100 | > 100 | – | – | – | – | – | – | – | – |
| COc1ccc(-c2nn(-c3cccc(NC(=O)c4cccc(C(F)(F)F)c4)c3)cc2-c2ccncc2)cc1Cl | > 100 | > 100 | 2.03 | > 100 | 24.8 | 92.8 | > 100 | 4.68 | 7.06 | 0.343 | 3.34 | 1.81 | 1.98 | 1.03 | 6.24 | 3.58 |
| O=C1NC(c2c(Cl)cccc2Cl)Nc2ccccc21 (centres undefined) | > 100 | > 100 | 33 | > 100 | > 100 | – | > 100 | > 100 | – | – | – | – | – | – | – | – |
| Cc1cc(C)c2nc3nc(C)cc(C)c3c(N)c2c1 | 19.8 | 28.2 | 16.6 | > 100 | 16.7 | 21.4 | – | 17.8 | 3.64 | 3.53 | 4.02 | 3.54 | – | 4.67 | 3.63 | 5.29 |
| H-HIIKKIRTWYRKAWHVLGKV-NH2 | 47.5 | 28.3 | 65.9 | > 100 | 4.58 | 31.1 | 9.74 | – | 4.32 | 5.15 | 4.74 | 2.05 | 2.79 | – | 12.8 | 4.94 |
| Cc1sc(NC2=NC(=O)/C(=C\c3ccccc3)S2)nc1-c1nc(NC2=NC(=O)/C(=C\c3ccccc3)S2)sc1C | – | > 50 | > 50 | > 39.6 | > 50 | > 41.4 | > 50 | 30.7 | 23 | 16.3 | 16.5 | 16.2 | 16.7 | 12.1 | – | 15.4 |
| O=C(O)c1c[nH]c2c(OCc3ccccc3)c3ccccc3c(O)c2c1=O | > 100 | > 100 | 4.08 | 40.9 | 34.3 | 14.3 | 45.9 | – | 18.7 | 2.18 | 11.8 | 14.9 | 15.1 | – | 43.6 | 3.22 |
| O=C1CC[C@H](c2ccc(O)c3c2C(=O)[C@@H]2O[C@@H]2C3=O)c2cccc(O)c21 | 13.9 | – | 4.2 | 11.2 | 4.2 | 20.4 | 7.22 | 29 | – | 1.92 | 3.36 | 1.17 | 2.52 | 15.5 | 3.51 | 3.31 |
| CCCC(=O)Nc1ccc2c(c1)CN1C(=O)c3ccccc3C1=N2 | > 100 | > 100 | > 100 | > 100 | > 100 | > 100 | > 100 | – | – | – | – | – | – | – | – | – |
| Cc1nn(-c2ccccc2)c2nc3c(nc12)C1=NCCN1C(c1ccc(Cl)cc1)N3 (centres undefined) | 20.9 | 27.4 | 3.74 | 21 | – | 31.6 | 18.3 | 17.9 | 11.7 | 1.85 | 6.29 | – | 4.33 | 4.01 | 7.1 | 15.3 |
| Cc1c(-c2nnc(-c3ccc(F)cc3)o2)nnn1-c1ccnc2c(C(F)(F)F)cccc12 | > 100 | > 100 | > 100 | > 100 | > 100 | > 100 | > 100 | – | 23.4 | 77.6 | 41.8 | 20.9 | 23.1 | – | 21 | 65.7 |
| COc1ccc(CCN2CCC(Nc3nc4ccccc4n3Cc3ccc(F)cc3)CC2)cc1 | 2.57 | 4.27 | 3 | 4.52 | 2.81 | 3.5 | 5.66 | – | 2.01 | 1.5 | 2.02 | 1.41 | 1.8 | – | 1.25 | 1.69 |
| Cc1ccc(NC2=C(Cl)C(=O)N(Cc3ccccc3)C2=O)cc1Cl | 26.6 | – | 25.7 | 9.93 | 13.7 | 14.6 | 8.84 | – | – | 5.29 | 2.32 | 3.3 | 1.99 | – | 10.7 | 4.13 |
| O=C(NC1CCCCC1)NS(=O)(=O)c1ccc(-n2nc3c(c2-c2ccc(Cl)cc2)Cc2ccccc2-3)cc1 | > 100 | 35.8 | 28.1 | 49.6 | 45.7 | – | 24.4 | 40.2 | 18.6 | 8.27 | 11.9 | 15.3 | 6.28 | 18.5 | 28.8 | – |
